Measurements reported in patent US20020137929A1, “1 - (3-heterocyclylphenyl) isothiourea, -isourea, -guanidine and -amidine herbicidal agents” (Intellectual Property Department, BASF Aktiengesellschaft, priority 1998, published 2002).

Experiments:
ORYSAT (Rice, Tebonnet) = assay: Postemergence herbicidal evaluation; type: in vivo, Oryza sativa, (L.) Tebonnet; conditions: postemergence
Outline: (§1)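 Seedlings grown about two weeks were sprayed at 40 psi with compound dispersed in 50/50 acetone/water plus 0.5% TWEEN 20, at about 0.0156 to 0.500 kg/ha. Plants were kept in the greenhouse and scored 4–5 weeks later on a 0–9 visual scale against untreated controls.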

[1] = tested on: TRZAWR (Wheat, Winter, cv Riband); assay: Preemergence herbicidal evaluation; type: in vivo, Triticum aestivum; conditions: preemergence, rated 4-5 weeks after treatment, 0-9 scale
Outline: (§2)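 In this greenhouse assay, monocot and dicot seeds are planted in soil and treated prior to emergence with an aqueous acetone spray (about 0.0156-0.500 kg/ha). Plants are assessed visually against control on a 0-9 scale after 4-5 weeks.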

CYPSE (Flatsedge) [2] = assay: Preemergence weed control under flooded paddy conditions; type: in vivo, Cyperus serotinus; conditions: rated 3-4 weeks after treatment
Outline: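 First, seeds or propagules go into the top 0.5 cm of silt loam; next, water is held 1.5 to 3 cm over the soil; then compound (50/50 acetone/water) is pipetted into it at about 0.0313 to 0.500 kg/ha; finally plants are rated visually 0-9 after three to four weeks.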

ECHCG (Barnyardgrass) = assay: Preemergence herbicidal evaluation; type: in vivo, Echinochloa crus-galli; conditions: preemergence, rated 4-5 weeks after treatment, 0-9 scale
Outline: as §2

[3] = tested on: ECHORC (Watergrass (Calif.)); assay: Postemergence weed control under flooded paddy conditions; type: in vivo, Echinochloa oryzoides; conditions: postemergence weeds, rated 3 to 4 weeks after treatment
Outline: (§3)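 Containers holding 3–5 cm weeds and rice at 1.5–2.5 leaves are flooded to 1.5–3 cm above soil. Compound in 50/50 v/v aqueous/acetone is then added directly to the water, about 0.0313–0.500 kg/ha. Plants are kept in the greenhouse and rated 0–9 visually at 3–4 weeks.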

SETVI (Foxtail, Green) [4] = assay: Postemergence herbicidal evaluation; type: in vivo, Setaria viridis; conditions: postemergence
Outline: as §1

ZEAMX (Corn, Field) [5] = assay: Postemergence herbicidal evaluation; type: in vivo, Zea mays; conditions: postemergence
Outline: as §1

CYPIR (Rice Flatsedge) [6] = assay: Postemergence weed control under flooded paddy conditions; type: in vivo, Cyperus iria; conditions: postemergence weeds, rated 3 to 4 weeks after treatment
Outline: as §3

CYPIR (Rice Flatsedge) [7] = assay: Preemergence weed control under flooded paddy conditions; type: in vivo, Cyperus iria; conditions: rated 3-4 weeks after treatment
Outline: (§4)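 Seeds or propagules sown in silt loam kept flooded 1.5-3 cm; compounds in 50/50 acetone/water pipetted into flood water at about 0.0313 to 0.500 kg/ha. Greenhouse; visual 0-9 rating versus untreated control 3-4 weeks after treatment.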

[8] = tested on: SAGPY (Arrowhead (Pygmaea)); assay: Postemergence weed control under flooded paddy conditions; type: in vivo, Sagittaria pygmaea; conditions: postemergence weeds, rated 3 to 4 weeks after treatment
Outline: as §3

SETVI (Foxtail, Green) [9] = assay: Preemergence herbicidal evaluation; type: in vivo, Setaria viridis; conditions: preemergence, rated 4-5 weeks after treatment, 0-9 scale
Outline: as §2

CYPSE (Flatsedge) [10] = assay: Postemergence weed control under flooded paddy conditions; type: in vivo, Cyperus serotinus; conditions: postemergence weeds, rated 3 to 4 weeks after treatment
Outline: as §3

ZEAMX (Corn, Field) [11] = assay: Preemergence herbicidal evaluation; type: in vivo, Zea mays; conditions: preemergence, rated 4-5 weeks after treatment, 0-9 scale
Outline: as §2

[12] = tested on: ECHORC (Watergrass (Calif.)); assay: Preemergence weed control under flooded paddy conditions; type: in vivo, Echinochloa oryzoides; conditions: rated 3-4 weeks after treatment
Outline: as §4

For `CN1C(=O)C(CC(=O)OCCF)SC1=Nc1cc(-n2c(=O)cc(C(F)(F)F)n(C)c2=O)c(F)cc1Cl` (centres unmarked) [Compound 93, 2-Fluoroethyl 2-{{2-chloro-5-[3,6-dihydro-3-methyl-2,6-dioxo-4-(trifluoromethyl)-1(2H)-pyrimidinyl]-4-fluorophenyl}imino}-3-methyl-4-oxo-5-thiazolidineacetate], the ORYSAT herbicidal rating (ORYSAT (Rice, Tebonnet); rate 0.0158 kg/ha) was 1.0, the ORYSAT herbicidal rating (ORYSAT (Rice, Tebonnet); rate 0.0315 kg/ha) was 4.0 and the ORYSAT herbicidal rating (ORYSAT (Rice, Tebonnet); rate 0.0630 kg/ha) was 6.0. It also gave a TRZAWR rating ([1]; 0.0313 kg/ha) of 0.0, a TRZAWR rating ([1]; 0.0625 kg/ha) of 0.0 and a TRZAWR rating ([1]; 0.1250 kg/ha) of 2.0. The TRZAWR rating ([1]; 0.2500 kg/ha) was 7.0, the “CYPSE herbicidal effect rating” value (CYPSE (Flatsedge) [2]; 0.0313 kg/ha) was 0.0 and the “CYPSE herbicidal effect rating” value (CYPSE (Flatsedge) [2]; 0.0625 kg/ha) was 0.0. For the same molecule, the “CYPSE herbicidal effect rating” value (CYPSE (Flatsedge) [2]; 0.1250 kg/ha) was 5.0, the “CYPSE herbicidal effect rating” value (CYPSE (Flatsedge) [2]; 0.2500 kg/ha) was 9.0 and the ECHCG rating (ECHCG (Barnyardgrass); 0.0313 kg/ha) was 0.0. The ECHCG rating (ECHCG (Barnyardgrass); 0.0625 kg/ha) was 0.0, the ECHCG rating (ECHCG (Barnyardgrass); 0.1250 kg/ha) was 0.0 and the ECHCG rating (ECHCG (Barnyardgrass); 0.2500 kg/ha) was 0.0. The “Herbicidal rating ECHORC” value ([3]; Rate 0.0313 kg/ha) was 0.0, the “Herbicidal rating ECHORC” value ([3]; Rate 0.0625 kg/ha) was 3.0 and the “Herbicidal rating ECHORC” value ([3]; Rate 0.1250 kg/ha) was 4.0. For the same molecule, the “Herbicidal rating ECHORC” value ([3]; Rate 0.2500 kg/ha) was 7.0, the SETVI herbicidal rating (SETVI (Foxtail, Green) [4]; rate 0.0158 kg/ha) was 9.0 and the SETVI herbicidal rating (SETVI (Foxtail, Green) [4]; rate 0.0315 kg/ha) was 9.0. The SETVI herbicidal rating (SETVI (Foxtail, Green) [4]; rate 0.0630 kg/ha) was 9.0, the ZEAMX herbicidal rating (ZEAMX (Corn, Field) [5]; rate 0.0158 kg/ha) was 7.5 and the ZEAMX herbicidal rating (ZEAMX (Corn, Field) [5]; rate 0.0315 kg/ha) was 7.5. For the same molecule, the ZEAMX herbicidal rating (ZEAMX (Corn, Field) [5]; rate 0.0630 kg/ha) was 8.0, the “Herbicidal rating CYPIR” value (CYPIR (Rice Flatsedge) [6]; Rate 0.0313 kg/ha) was 0.0 and the “Herbicidal rating CYPIR” value (CYPIR (Rice Flatsedge) [6]; Rate 0.0625 kg/ha) was 0.0. For the same molecule, the “Herbicidal rating CYPIR” value (CYPIR (Rice Flatsedge) [6]; Rate 0.1250 kg/ha) was 0.0, the “Herbicidal rating CYPIR” value (CYPIR (Rice Flatsedge) [6]; Rate 0.2500 kg/ha) was 0.0 and the “CYPIR herbicidal effect rating” value (CYPIR (Rice Flatsedge) [7]; 0.0313 kg/ha) was 0.0. For the same molecule, the “CYPIR herbicidal effect rating” value (CYPIR (Rice Flatsedge) [7]; 0.0625 kg/ha) was 0.0, the “CYPIR herbicidal effect rating” value (CYPIR (Rice Flatsedge) [7]; 0.1250 kg/ha) was 0.0 and the “CYPIR herbicidal effect rating” value (CYPIR (Rice Flatsedge) [7]; 0.2500 kg/ha) was 0.0. For the same molecule, the “Herbicidal rating SAGPY” value ([8]; Rate 0.0313 kg/ha) was 0.0, the “Herbicidal rating SAGPY” value ([8]; Rate 0.0625 kg/ha) was 0.0 and the “Herbicidal rating SAGPY” value ([8]; Rate 0.1250 kg/ha) was 3.0. For the same molecule, the “Herbicidal rating SAGPY” value ([8]; Rate 0.2500 kg/ha) was 9.0, the SETVI rating (SETVI (Foxtail, Green) [9]; 0.0313 kg/ha) was 0.0 and the SETVI rating (SETVI (Foxtail, Green) [9]; 0.0625 kg/ha) was 0.0. The SETVI rating (SETVI (Foxtail, Green) [9]; 0.1250 kg/ha) was 0.0, the SETVI rating (SETVI (Foxtail, Green) [9]; 0.2500 kg/ha) was 9.0 and the “Herbicidal rating CYPSE” value (CYPSE (Flatsedge) [10]; Rate 0.0313 kg/ha) was 0.0. The “Herbicidal rating CYPSE” value (CYPSE (Flatsedge) [10]; Rate 0.0625 kg/ha) was 0.0, the “Herbicidal rating CYPSE” value (CYPSE (Flatsedge) [10]; Rate 0.1250 kg/ha) was 5.0 and the “Herbicidal rating CYPSE” value (CYPSE (Flatsedge) [10]; Rate 0.2500 kg/ha) was 9.0. The ZEAMX rating (ZEAMX (Corn, Field) [11]; 0.0313 kg/ha) was 0.0, the ZEAMX rating (ZEAMX (Corn, Field) [11]; 0.0625 kg/ha) was 0.0 and the ZEAMX rating (ZEAMX (Corn, Field) [11]; 0.1250 kg/ha) was 1.0. For the same molecule, the ZEAMX rating (ZEAMX (Corn, Field) [11]; 0.2500 kg/ha) was 6.0, the “ECHORC herbicidal effect rating” value ([12]; 0.0313 kg/ha) was 0.0 and the “ECHORC herbicidal effect rating” value ([12]; 0.0625 kg/ha) was 3.0. The “ECHORC herbicidal effect rating” value ([12]; 0.1250 kg/ha) was 4.0 and the “ECHORC herbicidal effect rating” value ([12]; 0.2500 kg/ha) was 7.0.
